# Source: US20240025868A1, “PHENOTHIAZINE COMPOUNDS FOR THE TREATMENT OF ALZHEIMER'S DISEASE AND OTHER AGE-RELATED AND NEUROLOGICAL DISEASES” (Icahn School of Medicine at Mount Sinai, priority 2020, published 2024)
# Values joined by “and” are separate entries in the source; they are usually repeats but may differ in a detail not shown here. Equal values may be shown once. Where a name gives a salt, the structure may show the parent alone. Read-outs that look alike come from different tables or passages of the source.
# Assays:
# microglial cells = experiment: MTT viability of microglial cells (microglial toxicity); type: cell-based
# TNF-alpha = experiment: Microglial TNF-alpha secretion, LPS stimulated; type: cell-based; conditions: for TNFa: percentage of TNFa vs LPS stimulated controls, Table 2; for TNF-a.: Table 3, microglial inflammation, presented for comparison
# Description: The efficacy of these compounds to reduce toxicity are assessed, as reflected by age-dependent paralysis, in an Abeta transgenic C. elegans model of Alzheimer's Disease. Because microglial inflammation, especially the cytokine TNF-alpha, are implicated in driving the pathophysiology of Alzheimer's Disease, […], was also assessed.
# C. elegans = experiment: Lifespan in C. elegans; type: in vivo
# SARS-CoV-2 = experiment: microbe, parasite or virus in culture; type: cell-based
# Vero cells = experiment: Viability of Vero cells (CC50); type: cell-based; conditions: concentration that reduces viability of Vero cells
# [1] = system: Abeta transgenic C. elegans; experiment: Paralysis in Abeta transgenic C. elegans (Abeta toxicity); type: in vivo; conditions: for paralysis: Table 3, Abeta toxicity in C. elegans, one to six unexplained values per cell
# [2] = system: mouse model of intracerebral hemorrhage; experiment: Mouse model of intracerebral hemorrhage, motor and cognitive function; type: in vivo; conditions: for cognitive function: alternation in a Y-maze; for cognitive function / motor function: compared to DMSO, normalized to pre-ICH function; for motor function: rotarod
# Description: FIG. 1. […] Motor function was assessed using rotarod and cognitive was assessed by alternation in a Y-maze. All data were normalized to data pre-ICH function.
# Motor function was assessed using rotarod and cognitive was assessed by alternation in a Y-maze. All data were normalized to data pre-ICH function.
# [3] = system: Abeta transgenic C. elegans; conditions: Zhang, Poplawski et al. 2009; cited from earlier work
# [4] = system: mouse double-transgenic (A-beta/presenilin) model of AD; conditions: treatment between 14 and 15 months; Govindarajan et al. 2011; cited from earlier work
# [5] = Viability of Vero cells (CC50); type: cell-based; conditions: African green monkey; concentration that reduces viability of Vero cells
# [6] = Plasma and brain concentrations after IV or oral administration in mice; type: in vivo; conditions: male C57BL/6 mice
# Description: FIG. 2. Plasma and brain concentrations of TC084-110 over 8 h following a single IV injection (A) at 1 mg/kg or oral administration (B) at 10 mg/kg in male C57BL/6 mice. […] Plasma and brain concentrations at each time point represent the mean+/−SD from 3 mice.
# [7] = percentage of MTT viability compared to unstimulated DMSO control cells, Table 2
# [8] = Table 3, microglial toxicity, presented for comparison
# [9] = concentration that inhibits replication of SARS-CoV-2 in Vero cells by 50%, read-out: IC50
# [10] = Table 3, net protective effects in C. elegans, class letter
# [11] = Severe acute respiratory syndrome coronavirus 2, concentration that inhibits replication of SARS-CoV-2 in Vero cells by 50%, read-out: IC50
Compound,MTT (microglial cells; [7]) [%],TNFa (TNF-alpha) [%],lifespan in C. elegans (C. elegans),"Lifespan (C. elegans; Table 2, class letters I, D, N)",also measured
"COc1ccc2c(c1)N(CCCN(C)C(C)=O)c1ccccc1S2 [TC84-163, N-(3-(2-methoxy-10H-phenothiazin-10-yl)propyl)-N-methylacetamide]",108.79,99.98,increased lifespan,I,
"COc1ccc2c(c1)N(CCC1CCCCN1C(C)=O)c1ccccc1S2 (centres unmarked) [TC96-32, 1-(2-(2-(2-methoxy-10H-phenothiazin-10-yl)ethyl)piperidin-1-yl)ethan-1-one]",106.92,78.98,,,
Chlorprothixene [reference compound],,,,,MTT (microglial cells; [8]): 122.40%; IC50 (SARS-CoV-2; [9]): 1 µM; CC50 (Vero cells): 3.5 µM; TNF-a. (TNF-alpha): 69.84%; paralysis [1]: 64.31% and 47.65%; cognitive function [2]: preserve; motor function [2]: preserve; Lifespan (C. elegans; [10]): I 0.0493
"CC(=O)N1c2ccccc2Sc2ccc(C(F)(F)F)cc21 [TC84-32, 1-(2-(trifluoromethyl)-10H-phenothiazin-10-yl)ethan-1-one]",141.59,90.74,,,
"CC(=O)N1c2ccccc2[S+]([O-])c2ccc(C(F)(F)F)cc21 (centres unmarked) [TC84-38, 1-(5-oxido-2-(trifluoromethyl)-10H-phenothiazin-10-yl)ethan-1-one]",149.90,97.23,increased lifespan,I,
"CN1CCCCC1CCN1c2ccccc2Sc2cc(C(F)(F)F)ccc21 (centres unmarked) [TC84-144, 10-(2-(1-methylpiperidin-2-yl)ethyl)-3-(trifluoromethyl)-10H-phenothiazine]",41.27,45.34,increased lifespan,I,
CCCC(=O)[O-].[Na+] [sodium butyrate],,,,,"Abeta toxicity in vivo in a C. elegans model of AD [3]: significantly reduces Abeta toxicity; A-beta plaques [4]: no changes in A-beta plaques; acetylation of H3K14, H4K5, and H4K16 [4]: reduced acetylation; cognitive impairments [4]: reversed cognitive impairments"
"CC(=O)c1ccc2c(c1)N(C(C)=O)c1ccccc1S2 [TC84-13, 1,1′-(10H-phenothiazine-2,10-diyl)bis(ethan-1-one)]",154.03,95.36,increased lifespan,I,
"CCC(CC)COC(=O)[C@H](C)N[P@](=O)(OC[C@H]1O[C@@](C#N)(c2ccc3c(N)ncnn23)[C@H](O)[C@@H]1O)Oc1ccccc1 [Remdesivir, reference compound]",,,,,"IC50 (SARS-CoV-2; Severe acute respiratory syndrome coronavirus 2, Vero): 1.2 µM; CC50 [5]: > 20 µM"
"CC(=O)N(C)CCCN1c2ccccc2Sc2ccc(C(F)(F)F)cc21 [TC84-162, N-methyl-N-(3-(2-(trifluoromethyl)-10H-phenothiazin-10-yl)propyl)acetamide]",121.08,94.58,,,microglial TNF-alpha secretion (TNF-alpha): significantly reduced; Abeta toxicity [1]: reduced Abeta toxicity
"CC(=O)c1ccc2c(c1)N(C(C)=O)c1ccccc1[S+]2[O-] (centres unmarked) [TC84-20, 1,1′-(5-oxido-10H-phenothiazine-2,10-diyl)bis(ethan-1-one)]",158.76,95.41,increased lifespan,I,
"CN1CCCCC1CCN1c2ccccc2Sc2ccc(F)cc21 (centres unmarked) [TC84-110, 2-fluoro-10-(2-(1-methylpiperidin-2-yl)ethyl)-10H-phenothiazine]",91.99,58.49,increased lifespan,I,"MTT (microglial cells; [8]): 91.99%; SARS-CoV-2 replication (SARS-CoV-2): reduced SARS-CoV-2 replication; IC50 (SARS-CoV-2; [11]): 1.2 µM; CC50 [5]: 8.1 µM; microglial TNF-alpha secretion (TNF-alpha): significantly reduced; TNF-a. (TNF-alpha): 58.49%; Abeta toxicity [1]: reduced Abeta toxicity; oral availability ([6]; oral administration at 10 mg/kg): orally available; brain/plasma ratio ([6]; single IV 1 mg/kg or oral 10 mg/kg, over 8 h): very high; protection to maintain open field behavior and cognitive impairments ([2]; administered after the lesion was produced): significantly protective; cognitive function [2]: preserve; off-target effects such as sedation ([2]; mouse): no discernable off-target effects; motor function [2]: preserve; Lifespan (C. elegans; [10]): I"
"COc1ccc2c(c1)N(C(C)=O)c1ccccc1[S+]2[O-] (centres unmarked) [TC84-37, 1-(2-methoxy-5-oxido-10H-phenothiazin-10-yl)ethan-1-one]",140.38,90.49,,,
"Cc1ccc2c(c1)N(CCC1CCCCN1C)c1cc(C(F)(F)F)ccc1S2 (centres unmarked) [TC96-20, 2-methyl-10-(2-(1-methylpiperidin-2-yl)ethyl)-8-(trifluoromethyl)-10H-phenothiazine]",51.90,49.67,,,microglial TNF-alpha secretion (TNF-alpha): significantly reduced; Abeta toxicity [1]: reduced Abeta toxicity
CN(C)CCCN1c2ccccc2Sc2ccc(C(F)(F)F)cc21 [Triflupromazine Hydrochloride],,,,,CC50 [5]: 7 µM
"COc1ccc2c(c1)N(C(C)=O)c1ccccc1S2 [TC84-31, 1-(2-methoxy-10H-phenothiazin-10-yl)ethan-1-one]",153.72,92.28,,,
"CC(=O)c1ccc2c(c1)N(CCCN(C)C(C)=O)c1ccccc1S2 [TC84-161, N-(3-(2-acetyl-10H-phenothiazin-10-yl)propyl)-N-methylacetamide]",106.15,89.27,increased lifespan,I,
"Cc1cc2c(cc1C)N(CCC1CCCCN1C)c1ccccc1S2 (centres unmarked) [TC84-125, 2,3-dimethyl-10-(2-(1-methylpiperidin-2-yl)ethyl)-10H-phenothiazine]",42.77,41.37,increased lifespan,I,microglial TNF-alpha secretion (TNF-alpha): significantly reduced; Abeta toxicity [1]: reduced Abeta toxicity
Chlorpromazine [reference compound],,,,,MTT (microglial cells; [8]): 79.38%; IC50 (SARS-CoV-2; [9]): 4.4 µM; CC50 (Vero cells): 6.7 µM; TNF-a. (TNF-alpha): 63.83%; paralysis [1]: 0%; Lifespan (C. elegans; [10]): I
"CC(=O)N1c2ccccc2[S+]([O-])c2ccc(Cl)cc21 (centres unmarked) [TC84-39, 1-(2-chloro-5-oxido-10H-phenothiazin-10-yl)ethan-1-one]",134.67,90.88,increased lifespan,I,
"Cc1cc2c(cc1C)N(CCCN(C)C)c1ccccc1S2 [TC84-124, 3-(2,3-dimethyl-10H-phenothiazin-10-yl)-N,N-dimethylpropan-1-amine]",82.48,56.73,increased lifespan,I,MTT (microglial cells; [8]): 82.48%; SARS-CoV-2 replication (SARS-CoV-2): reduced SARS-CoV-2 replication; IC50 (SARS-CoV-2; [11]): 1.7 µM; CC50 [5]: 6.5 µM; microglial TNF-alpha secretion (TNF-alpha): significantly reduced; TNF-a. (TNF-alpha): 56.73%; Abeta toxicity [1]: reduced Abeta toxicity; Lifespan (C. elegans; [10]): I
